Measurements taken from PubChem BioAssay AID1845213 (Molecular Pharmacology Branch, DTP, NCI, 2023).

Test system: NCI-H841 complex tumor spheroid viability
Assay: Anticancer human tumor NCI-H841 cell line growth inhibition;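 also: spheroids exposed to compounds for 7 days before readout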;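 as to viability, T/C: 100% = DMSO vehicle control wells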
Conditions: for IC50: curve of first compound; for viability, T/C: stronger effect = lower value
Description: Multicellular complex tumor spheroid response to DNA repair inhibitors in combination with DNA-damaging drugs
This study explores the anticancer activities of DNA-damaging drugs and inhibitors of DNA damage repair, both as single agents and in combinations. Complex tumor spheroids comprised of malignant cells, endothelial cells and mesenchymal stem cells served as an in vitro model for human solid tumors. This model system incorporates physiologically relevant features and patient-derived or established malignant cell lines with clinically relevant genetic alterations from many tumor types. Twenty-six patient-derived or established malignant cell lines were evaluated representing sarcoma, melanoma, small cell lung cancer (SCLC), non-small cell lung cancer (NSCLC), as well as bladder, ovarian and pancreatic cancers. The concentration ranges selected for each drug and investigational agent were based upon clinically achievable concentrations if the clinical Cmax of the agent was known.
Compounds. The drugs and compounds olaparib (NSC753686), talazoparib (NSC767125), berzosertib (NSC777718), elimusertib (NSC800525), nedisertib (NSC802822), VX-984 (NSC792969), AZD-1390 (NSC803789), temozolomide (NSC362856), topotecan (NSC609699), trabectedin (NSC813783), staurosporine (NSC755774), and gemcitabine (NSC613327) were obtained from the National Cancer Institute (NCI) Developmental Therapeutics Program Chemical Repository. The FDA-approved anticancer drug set is available from the Developmental Therapeutics Program at https://dtp.cancer.gov/organization/dscb/obtaining/available_plates.htm. […] The stock solutions were prepared in dimethyl sulfoxide (DMSO, Sigma-Aldrich, St. Louis, MO, cat. D2650) at 400-fold the tested concentration and stored at -70 degrees C. Prior to their use, the stock solutions were diluted in fresh medium and the final DMSO concentration in the assay was 0.25% (v/v). All drugs and investigational agents were tested over a range starting from a high concentration at or near the clinical Cmax and decreasing in half-log increments. If the clinical Cmax for an agent had not been determined, the highest concentration tested was 10 microM.
Cell Lines. The patient-derived cancer cell (PDC) lines: 156681-154-R-J1-PDC, 283228-195-R-J1-PDC, 287954-098-R-J1-PDC, 292921-168-R-J2-PDC, 349418-098-R-PDC, 425362-245-T-J1-PDC, 556581-035-R-J1-PDC, and BL0293-F563-PDC were received from the NCI Patient-Derived Models Repository (PDMR, https://pdmr.cancer.gov). The established cell lines HS-SY-2 (RRID:CVCL_8719), MPNST, and SYO-1 (RRID:CVCL_7146) were obtained from the Sloan Kettering Institute. The alveolar soft parts sarcoma cell line ASPS-1 (RRID:CVCL_S738) was established at the NCI and grown from internal seed stocks. The following established cell lines were purchased from the American Type Culture Collection (ATCC, Manassas, VA): G-401 (ATCC, cat. CRL-1441, RRID:CVCL_0270), SW982 (ATCC, cat. HTB-93, RRID:CVCL_1734), VA-ES-BJ (ATCC, cat. CRL-2138, RRID:CVCL_1785), NCI-H719 (ATCC, cat. CRL-5837, RRID:CVCL_1582), NCI-H196 (ATCC, cat. CRL-5823, RRID:CVCL_1509), NCI-H841 (ATCC, cat. CRL-5845, RRID:CVCL_1595), NCI-H1618 (ATCC, cat. CRL-5879, RRID:CVCL_1480), NCI-H1876 (ATCC, cat. CRL-5902, RRID:CVCL_1503), DMS 114 (ATCC, cat. CRL-2066; RRID:CVCL_1174), NCI-H211 (ATCC, cat. CRL-5824; RRID:CVCL_1529), and SW 1271 (ATCC, cat. CRL-2177, RRID:CVCL_1716). The small cell lung cancer cell line COR-L88 was purchased from Sigma-Aldrich (cat. 92031917-1VL, RRID:CVCL_1141). The non-small cell lung cancer cell lines NCI-H226 (RRID:CVCL_1544) and NCI-H322M (RRID:CVCL_1557) were established at the NCI and grown from internal seed stocks. Pooled donor human umbilical vein endothelial cells (HUVEC, Lonza, cat. CC-2519) and human mesenchymal stem cells (hMSC, Lonza, cat. PT-2501) were purchased from Lonza (Walkersville, MD).
Cell Culture. All cells were maintained in an incubator at 37 degrees C and 5% CO2 with 95% humidity. […]

[1] = second compound 0.003 µM, first compound 0.0316 µM
[2] = second compound 0.003 µM, first compound 0.1 µM
[3] = second compound 0.003 µM, first compound 0.316 µM
[4] = second compound 0.003 µM, first compound 1 µM
[5] = second compound 0.003 µM, first compound 3.16 µM
[6] = second compound 0.003 µM, first compound 10 µM
[7] = second compound 0.00949 µM, first compound 0.0316 µM
[8] = second compound 0.00949 µM, first compound 0.1 µM
[9] = second compound 0.00949 µM, first compound 0.316 µM
[10] = second compound 0.00949 µM, first compound 1 µM
[11] = second compound 0.00949 µM, first compound 3.16 µM
[12] = second compound 0.00949 µM, first compound 10 µM
[13] = second compound 0.03 µM, first compound 0.0316 µM
[14] = second compound 0.03 µM, first compound 0.1 µM
[15] = second compound 0.03 µM, first compound 0.316 µM
[16] = second compound 0.03 µM, first compound 1 µM
[17] = second compound 0.03 µM, first compound 3.16 µM
[18] = second compound 0.03 µM, first compound 10 µM
[19] = second compound 0.0949 µM, first compound 0.0316 µM
[20] = second compound 0.0949 µM, first compound 0.1 µM
[21] = second compound 0.0949 µM, first compound 0.316 µM
[22] = second compound 0.0949 µM, first compound 1 µM
[23] = second compound 0.0949 µM, first compound 3.16 µM
[24] = second compound 0.0949 µM, first compound 10 µM
[25] = second compound 0.3 µM, first compound 0.0316 µM
[26] = second compound 0.3 µM, first compound 0.1 µM
[27] = second compound 0.3 µM, first compound 0.316 µM
[28] = second compound 0.3 µM, first compound 1 µM
[29] = second compound 0.3 µM, first compound 3.16 µM
[30] = second compound 0.3 µM, first compound 10 µM

Compound: Cc1cc(C)c(CNC(=O)c2cc(-c3ccc(CN4CCOCC4)cc3)cc3c2cnn3C2CCCC2)c(=O)[nH]1 + CC[C@@]1(O)C(=O)OCc2c1cc1n(c2=O)Cc2cc3c(CN(C)C)c(O)ccc3nc2-1
- IC50 (second compound 0.003 µM): 5.6 µM
- IC50 (second compound 0.00949 µM): 0.713 µM
- IC50 (second compound 0.03 µM): < 0.0316 µM
- IC50 (second compound 0.0949 µM): < 0.0316 µM
- IC50 (second compound 0.3 µM): < 0.0316 µM
- viability, T/C [1]: 93.6%
- viability, T/C [2]: 94.4%
- viability, T/C [3]: 91.9%
- viability, T/C [4]: 83.5%
- viability, T/C [5]: 65.2%
- viability, T/C [6]: 34.7%
- viability, T/C [7]: 69.6%
- viability, T/C [8]: 60.8%
- viability, T/C [9]: 63.4%
- viability, T/C [10]: 44.7%
- viability, T/C [11]: 21.7%
- viability, T/C [12]: 9.9%
- viability, T/C [13]: 2.88%
- viability, T/C [14]: 2.59%
- viability, T/C [15]: 2.6%
- viability, T/C [16]: 1.45%
- viability, T/C [17]: 1.14%
- viability, T/C [18]: 1.49%
- viability, T/C [19]: 1.83%
- viability, T/C [20]: 1.47%
- viability, T/C [21]: 1.42%
- viability, T/C [22]: 1.4%
- viability, T/C [23]: 1.41%
- viability, T/C [24]: 1.58%
- viability, T/C [25]: 7.2%
- viability, T/C [26]: 1.62%
- viability, T/C [27]: 1.88%
- viability, T/C [28]: 1.53%
- viability, T/C [29]: 1.17%
- viability, T/C [30]: 4.17%

Compound: Cc1sc2c(c1C)C(c1ccc(Cl)cc1)=NC(CC(=O)Nc1ccc(O)cc1)c1nnc(C)n1-2 (stereo not given) + CC[C@@]1(O)C(=O)OCc2c1cc1n(c2=O)Cc2cc3c(CN(C)C)c(O)ccc3nc2-1
- IC50 (second compound 0.003 µM): 0.152 µM
- IC50 (second compound 0.00949 µM): 0.0127 µM
- IC50 (second compound 0.03 µM): < 0.00949 µM
- IC50 (second compound 0.0949 µM): < 0.00949 µM
- IC50 (second compound 0.3 µM): < 0.00949 µM
- viability, T/C (second compound 0.003 µM, first compound 0.00949 µM): 88%
- viability, T/C (second compound 0.003 µM, first compound 0.03 µM): 85%
- viability, T/C (second compound 0.003 µM, first compound 0.0949 µM): 66.2%
- viability, T/C (second compound 0.003 µM, first compound 0.3 µM): 26.5%
- viability, T/C (second compound 0.003 µM, first compound 0.949 µM): 6.68%
- viability, T/C (second compound 0.003 µM, first compound 3 µM): 1.61%
- viability, T/C (second compound 0.00949 µM, first compound 0.00949 µM): 63.4%
- viability, T/C (second compound 0.00949 µM, first compound 0.03 µM): 9.92%
- viability, T/C (second compound 0.00949 µM, first compound 0.0949 µM): 27.9%
- viability, T/C (second compound 0.00949 µM, first compound 0.3 µM): 4.81%
- viability, T/C (second compound 0.00949 µM, first compound 0.949 µM): 1.04%
- viability, T/C (second compound 0.00949 µM, first compound 3 µM): 0.47%
- viability, T/C (second compound 0.03 µM, first compound 0.00949 µM): 1.92%
- viability, T/C (second compound 0.03 µM, first compound 0.03 µM): 4.07%
- viability, T/C (second compound 0.03 µM, first compound 0.0949 µM): 0.85%
- viability, T/C (second compound 0.03 µM, first compound 0.3 µM): 0.58%
- viability, T/C (second compound 0.03 µM, first compound 0.949 µM): 0.55%
- viability, T/C (second compound 0.03 µM, first compound 3 µM): 0.5%
- viability, T/C (second compound 0.0949 µM, first compound 0.00949 µM): 1.59%
- viability, T/C (second compound 0.0949 µM, first compound 0.03 µM): 1.44%
- viability, T/C (second compound 0.0949 µM, first compound 0.0949 µM): 0.98%
- viability, T/C (second compound 0.0949 µM, first compound 0.3 µM): 0.78%
- viability, T/C (second compound 0.0949 µM, first compound 0.949 µM): 0.62%
- viability, T/C (second compound 0.0949 µM, first compound 3 µM): 5.05%
- viability, T/C (second compound 0.3 µM, first compound 0.00949 µM): 1.48%
- viability, T/C (second compound 0.3 µM, first compound 0.03 µM): 1.46%
- viability, T/C (second compound 0.3 µM, first compound 0.0949 µM): 1.06%
- viability, T/C (second compound 0.3 µM, first compound 0.3 µM): 0.57%
- viability, T/C (second compound 0.3 µM, first compound 0.949 µM): 0.28%
- viability, T/C (second compound 0.3 µM, first compound 3 µM): 0.2%

Compound: [2H]c1nc(C)nc([2H])c1-c1cc(NC[C@@H](C)c2cccc3c(C(=O)NC)ccnc23)ncn1 + CC[C@@]1(O)C(=O)OCc2c1cc1n(c2=O)Cc2cc3c(CN(C)C)c(O)ccc3nc2-1
- IC50 (second compound 0.003 µM): > 10 µM
- IC50 (second compound 0.00949 µM): > 10 µM
- IC50 (second compound 0.03 µM): < 0.0316 µM
- IC50 (second compound 0.0949 µM): < 0.0316 µM
- IC50 (second compound 0.3 µM): < 0.0316 µM
- viability, T/C [1]: 97.6%
- viability, T/C [2]: 95.8%
- viability, T/C [3]: 96.1%
- viability, T/C [4]: 96.4%
- viability, T/C [5]: 93.4%
- viability, T/C [6]: 93%
- viability, T/C [7]: 83.9%
- viability, T/C [8]: 76.5%
- viability, T/C [9]: 74.4%
- viability, T/C [10]: 75.2%
- viability, T/C [11]: 68.7%
- viability, T/C [12]: 62.6%
- viability, T/C [13]: 2.66%
- viability, T/C [14]: 2.14%
- viability, T/C [15]: 2.36%
- viability, T/C [16]: 1.49%
- viability, T/C [17]: 1.43%
- viability, T/C [18]: 1.47%
- viability, T/C [19]: 1.75%
- viability, T/C [20]: 1.82%
- viability, T/C [21]: 1.89%
- viability, T/C [22]: 1.74%
- viability, T/C [23]: 1.58%
- viability, T/C [24]: 1.67%
- viability, T/C [25]: 1.97%
- viability, T/C [26]: 1.94%
- viability, T/C [27]: 1.59%
- viability, T/C [28]: 1.73%
- viability, T/C [29]: 1.5%
- viability, T/C [30]: 1.17%
